The target of this experiment is Human recombinant PDE4 (Genbank accession no NM—006203) (Homo sapiens, UniProt Q08499). Nature of the experiment: PDE4 assay (SPA, cAMP cleavage). Format: biochemical. Conditions: read-out: PDE4 IC50 range. The protocol:
At the end of the incubation, the cleavage of the substrate was evaluated by the binding of the AMP product to SPA beads, which generate chemoluminescence when bound to the radioactive tracer. The AMP product inhibited the binding of the radioactive tracer to the beads, and the luminescent signal was competed.

Setting [1] is: Example 53, PDE4 assay as in example 52.
The mark [2] stands for this setting: Example 52, human recombinant PDE4, 1 hour incubation, cAMP 1×10^-5M, test compound up to 10 μM.

One may read the IC50 as the concentration that gives 50% inhibition.

Read-outs that look alike come from different tables or passages of the source.

Sequence of Human recombinant PDE4 (Genbank accession no NM—006203) (Q08499 1-673 isoform Q08499-2): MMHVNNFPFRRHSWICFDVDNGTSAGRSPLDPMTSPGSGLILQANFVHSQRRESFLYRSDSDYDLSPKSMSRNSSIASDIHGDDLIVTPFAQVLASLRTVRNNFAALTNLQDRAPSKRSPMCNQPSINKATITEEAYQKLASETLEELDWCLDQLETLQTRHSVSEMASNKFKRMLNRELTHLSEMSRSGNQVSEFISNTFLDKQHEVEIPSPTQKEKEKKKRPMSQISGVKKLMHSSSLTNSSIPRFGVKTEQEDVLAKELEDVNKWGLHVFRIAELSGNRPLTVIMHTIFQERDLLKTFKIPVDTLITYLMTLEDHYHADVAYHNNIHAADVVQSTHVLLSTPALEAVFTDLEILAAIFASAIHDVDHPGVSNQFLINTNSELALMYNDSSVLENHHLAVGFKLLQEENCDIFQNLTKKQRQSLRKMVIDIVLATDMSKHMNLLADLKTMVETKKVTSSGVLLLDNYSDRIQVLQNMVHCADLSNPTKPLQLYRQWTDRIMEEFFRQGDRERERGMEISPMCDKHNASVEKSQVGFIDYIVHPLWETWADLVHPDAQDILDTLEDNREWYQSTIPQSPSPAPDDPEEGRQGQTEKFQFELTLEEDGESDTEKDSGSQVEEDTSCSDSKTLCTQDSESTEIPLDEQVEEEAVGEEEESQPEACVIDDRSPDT

For the compound `COc1ccc(-c2cncc(C#N)c2)n2nc(C3(C(=O)NCC4CCCCC4)CC3)nc12` [Compound 185, 1-[5-(5-Cyano-pyridin-3-yl)-8-methoxy-[1,2,4]triazolo[1,5-a]pyridin-2-yl]-cyclopropanecarboxylic acid cyclohexylmethyl-amide], under setting [1], the IC50 was less than 500 nM.

As to `COc1ccc(-c2ccc(CNS(C)(=O)=O)cc2)n2nc(C3CC3)nc12` [Compound 130, N-[4-(2-Cyclopropyl-8-methoxy-[1,2,4]triazolo[1,5-a]pyridin-5-yl)-benzyl]-methanesulfonamide], under setting [2], the IC50 was greater than 1000 nM.

Consider `COc1ccc(-c2cccc(OC(F)(F)F)c2)n2nc(C3CC3)nc12` [Compound 108, 2-Cyclopropyl-8-methoxy-5-(3-trifluoromethoxy-phenyl)-[1,2,4]triazolo[1,5-a]pyridine], for which the IC50 under setting [2] is less than 500 nM.

With `COc1ccc(-c2ccncc2)n2nc(C3CC3)nc12` [Compound 126, 2-Cyclopropyl-8-methoxy-5-pyridin-4-yl-[1,2,4]triazolo[1,5-a]pyridine], under setting [2], the IC50 was less than 500 nM.

Regarding `COc1ccc(-c2ccc(C(F)(F)F)cc2)n2nc(C3CC3)nc12` [Compound 104, 2-Cyclopropyl-8-methoxy-5-(4-trifluoromethyl-phenyl)-[1,2,4]triazolo[1,5-a]pyridine], under setting [2], the IC50 fell in the range of 500 to 1000 nM.

In the case of `COc1ccc(-c2cccc(C#N)c2)n2nc(C3(COC(=O)N4CCCC4)CC3)nc12` [Compound 151, Pyrrolidine-1-carboxylic acid 1-[5-(3-cyano-phenyl)-8-methoxy-[1,2,4]triazolo[1,5-a]pyridin-2-yl]-cyclopropylmethyl ester], under setting [1], the IC50 is less than 500 nM.

`CCCNC(=O)OCC1(c2nc3c(OC)ccc(-c4cncc(C#N)c4)n3n2)CC1` [Compound 236, Propyl-carbamic acid 1-[5-(5-cyano-pyridin-3-yl)-8-methoxy-[1,2,4]triazolo[1,5-a]pyridin-2-yl]-cyclopropylmethyl ester]: the IC50 under setting [1] is less than 500 nM.

For `COCCOc1ccc(-c2ccc(OC)c3nc(C4CC4)nn23)cc1` [Compound 122, 2-Cyclopropyl-8-methoxy-5-[4-(2-methoxy-ethoxy)-phenyl]-[1,2,4]triazolo[1,5-a]pyridine], under setting [2], the IC50 was greater than 1000 nM.

On to `COc1ccc(-c2ccc(C#N)cc2)n2nc(C3(C(=O)N4CCN(C)CC4)CC3)nc12` [Compound 204, 4-{8-Methoxy-2-[1-(4-methyl-piperazine-1-carbonyl)-cyclopropyl]-[1,2,4]triazolo[1,5-a]pyridin-5-yl}-benzonitrile], for which, under setting [1], the IC50 was greater than 1000 nM.

As for `COc1ccc(-c2cccc(C#N)c2)n2nc(C3(CNC(=O)C(C)C)CC3)nc12` [Compound 154, N-{1-[5-(3-Cyano-phenyl)-8-methoxy-[1,2,4]triazolo[1,5-a]pyridin-2-yl]-cyclopropylmethyl}-isobutyramide], the IC50 under setting [1] was less than 500 nM.

Turning to `CC(=O)c1cccc(-c2ccc(O)c3nc(C4CC4)nn23)c1` [Compound 144, 1-[3-(2-Cyclopropyl-8-hydroxy-[1,2,4]triazolo[1,5-a]pyridin-5-yl)-phenyl]-ethanone], under setting [1], the IC50 is less than 500 nM.

For `COc1ccc(-c2cccc(C(C)=O)c2)n2nc(C3(C(=O)NCc4cccnc4)CC3)nc12` [Compound 221, 1-[5-(3-Acetyl-phenyl)-8-methoxy-[1,2,4]triazolo[1,5-a]pyridin-2-yl]-cyclopropanecarboxylic acid (pyridin-3-ylmethyl)-amide], the IC50 under setting [1] is less than 500 nM.

As to `COc1cc(-c2ccc(OC)c3nc(C4(COC(=O)N5CCCC5)CC4)nn23)ccc1C#N` [Compound 234, Pyrrolidine-1-carboxylic acid 1-[5-(4-cyano-3-methoxy-phenyl)-8-methoxy-[1,2,4]-triazolo[1,5-a]pyridin-2-yl]-cyclopropylmethyl ester], under setting [1], the IC50 is less than 500 nM.

`COc1ccc(-c2ccc(C#N)cc2)n2nc(C3(C(=O)NCCNC(C)=O)CC3)nc12` [Compound 216, 1-[5-(4-Cyano-phenyl)-8-methoxy-[1,2,4]triazolo[1,5-a]pyridin-2-yl]-cyclopropanecarboxylic acid (2-acetylamino-ethyl)-amide]: the IC50 under setting [1] was less than 500 nM.

For `COc1ccc(-c2ccccc2F)n2nc(C3CC3)nc12` [Compound 121, 2-Cyclopropyl-5-(2-fluoro-phenyl)-8-methoxy-[1,2,4]triazolo[1,5-a]pyridine], the IC50 under setting [2] lay in the range of 500 to 1000 nM.

As to `COc1ccc(-c2cccc(C#N)c2)n2nc(C3(CNC(=O)N4CCCC4)CC3)nc12` [Compound 156, Pyrrolidine-1-carboxylic acid {1-[5-(3-cyano-phenyl)-8-methoxy-[1,2,4]triazolo[1,5-a]pyridin-2-yl]-cyclopropylmethyl}-amide], the IC50 under setting [1] is less than 500 nM.

As to `COc1ccc(-c2cc(C#N)ccn2)n2nc(C3CC3)nc12` [Compound 145, 2-(2-Cyclopropyl-8-methoxy-[1,2,4]triazolo[1,5-a]pyridin-5-yl)-isonicotinonitrile], the IC50 under setting [1] was in the range of 500 to 1000 nM.

For `COc1ccc(-c2cccc(C#N)c2)n2nc(C3(C(=O)NCCS(C)(=O)=O)CC3)nc12` [Compound 199, 1-[5-(3-Cyano-phenyl)-8-methoxy-[1,2,4]triazolo[1,5-a]pyridin-2-yl]-cyclopropanecarboxylic acid (2-methanesulfonyl-ethyl)-amide], under setting [1], the IC50 was less than 500 nM.

In the case of `COc1ccc(-c2ccc3c(c2)CCC3=O)n2nc(C3(C(=O)NCc4ccccc4)CC3)nc12` [Compound 182, 1-[8-Methoxy-5-(1-oxo-indan-5-yl)-[1,2,4]triazolo[1,5-a]pyridin-2-yl]-cyclopropanecarboxylic acid benzylamide], the IC50 under setting [1] was less than 500 nM.

With `COc1ccc(-c2cccc3c2CCC3=O)n2nc(C3(COC(=O)NC4CCCCC4)CC3)nc12` [Compound 240, Cyclohexyl-carbamic acid 1-[8-methoxy-5-(1-oxo-indan-4-yl)-[1,2,4]triazolo[1,5-a]pyridin-2-yl]-cyclopropylmethyl ester], the IC50 under setting [1] was less than 500 nM.

For the compound `COc1ccc(-c2cncc(C#N)c2)n2nc(C3(COC(=O)NC(C)C)CC3)nc12` [Compound 232, Isopropyl-carbamic acid 1-[5-(5-cyano-pyridin-3-yl)-8-methoxy-[1,2,4]triazolo[1,5-a]pyridin-2-yl]-cyclopropylmethyl ester], the IC50 under setting [1] was less than 500 nM.

Regarding `CNC(=O)c1cccc(-c2ccc(OC)c3nc(C4CC4)nn23)c1` [Compound 114, 3-(2-Cyclopropyl-8-methoxy-[1,2,4]triazolo[1,5-a]pyridin-5-yl)-N-methyl-benzamide], the IC50 under setting [2] is greater than 1000 nM.

On to `COc1ccc(-c2ccc(C#N)c(F)c2)n2nc(C3CC3)nc12` [Compound 165, 4-(2-Cyclopropyl-8-methoxyl-[1,2,4]-triazolo[1,5-a]pyridin-5-yl)-2-fluoro-benzonitrile], for which the IC50 under setting [1] is less than 500 nM.

For `COc1ccc(-c2ccc(C#N)cc2)n2nc(C3(C(=O)NCc4cccnc4)CC3)nc12` [Compound 203, 1-[5-(4-Cyano-phenyl)-8-methoxy-[1,2,4]triazolo[1,5-a]pyridin-2-yl]-cyclopropanecarboxylic acid (pyridin-3-ylmethyl)-amide], under setting [1], the IC50 is less than 500 nM.

For the compound `COc1ccc(-c2ccc(C#N)cc2)n2nc(C3(C(=O)NCCC(=O)N4CCOCC4)CC3)nc12` [Compound 218, 1-[5-(4-Cyano-phenyl)-8-methoxy-[1,2,4]triazolo[1,5-a]pyridin-2-yl]-cyclopropanecarboxylic acid (3-morpholin-4-yl-3-oxo-propyl)-amide], the IC50 under setting [1] was less than 500 nM.

Turning to `COc1ccc(-c2ccc(C#N)cc2)n2nc(C3(C(=O)NCCNS(C)(=O)=O)CC3)nc12` [Compound 217, 1-[5-(4-Cyano-phenyl)-8-methoxy-[1,2,4]triazolo[1,5-a]pyridin-2-yl]-cyclopropanecarboxylic acid (2-methanesulfonylamino-ethyl)-amide], the IC50 under setting [1] is less than 500 nM.

As for `COC(=O)CCc1ccc(-c2ccc(OC)c3nc(C4CC4)nn23)cc1` [Compound 133, 3-[4-(2-Cyclopropyl-8-methoxy-[1,2,4]triazolo[1,5-a]pyridin-5-yl)-phenyl]-propionic acid methyl ester], under setting [2], the IC50 fell in the range of 500 to 1000 nM.
